From PubChem BioAssay AID1918942 (Molecular Pharmacology Branch, DTP, NCI, 2023)
Values joined by “and” are separate entries in the source; they are usually repeats but may differ in a detail not shown here. Equal values may be shown once.

Tested on: 743489-274-T-PDC complex spheroid viability
Assay: Anticancer human tumor 743489-274-T-PDC patient-derived renal cell carcinoma cell line growth inhibition
Settings: for viability, T/C: stronger effect = lower value
Procedure, shortened: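 Multicellular complex spheroids of tumor cells with human endothelial cells (HUVEC) and mesenchymal stem cells; the LSD1 inhibitor iadademstat was combined with standard-of-care or investigational agents. Top concentration at or near clinical Cmax, half-log dilutions; final DMSO ≤0.25%.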

[1] = curve of first compound, second compound 0.1 µM
[2] = curve of first compound, second compound 0.316 µM
[3] = curve of first compound, second compound 1 µM
[4] = curve of first compound, second compound 3.16 µM
[5] = curve of first compound, second compound 10 µM
[6] = second compound 0.1 µM, first compound 0.00316 µM
[7] = second compound 0.1 µM, first compound 0.01 µM
[8] = second compound 0.1 µM, first compound 0.0316 µM
[9] = second compound 0.1 µM, first compound 0.1 µM
[10] = second compound 0.1 µM, first compound 0.316 µM
[11] = second compound 0.1 µM, first compound 1 µM
[12] = second compound 0.316 µM, first compound 0.00316 µM
[13] = second compound 0.316 µM, first compound 0.01 µM
[14] = second compound 0.316 µM, first compound 0.0316 µM
[15] = second compound 0.316 µM, first compound 0.1 µM
[16] = second compound 0.316 µM, first compound 0.316 µM
[17] = second compound 0.316 µM, first compound 1 µM
[18] = second compound 1 µM, first compound 0.00316 µM
[19] = second compound 1 µM, first compound 0.01 µM
[20] = second compound 1 µM, first compound 0.0316 µM
[21] = second compound 1 µM, first compound 0.1 µM
[22] = second compound 1 µM, first compound 0.316 µM
[23] = second compound 1 µM, first compound 1 µM
[24] = second compound 3.16 µM, first compound 0.00316 µM
[25] = second compound 3.16 µM, first compound 0.01 µM
[26] = second compound 3.16 µM, first compound 0.0316 µM
[27] = second compound 3.16 µM, first compound 0.1 µM
[28] = second compound 3.16 µM, first compound 0.316 µM
[29] = second compound 3.16 µM, first compound 1 µM
[30] = second compound 10 µM, first compound 0.00316 µM
[31] = second compound 10 µM, first compound 0.01 µM
[32] = second compound 10 µM, first compound 0.0316 µM
[33] = second compound 10 µM, first compound 0.1 µM
[34] = second compound 10 µM, first compound 0.316 µM
[35] = second compound 10 µM, first compound 1 µM
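Further: spheroids exposed to compounds for 7 days before readout.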
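Wherever viability, T/C is given: 100% = DMSO vehicle control wells.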

## CC1COCCN1c1cc(-c2ccnn2C)c2ccnc(-c3ccn[nH]3)c2n1 (configuration not stated) + NC1CC1c1ccc(-c2cccc(O)c2)cc1
[1]
  IC50: 0.448 µM
[2]
  IC50: > 1 µM
[3]
  IC50: 0.716 µM
[4]
  IC50: 0.54 µM
[5]
  IC50: 0.518 µM
[6]
  viability, T/C: 109%
[7]
  viability, T/C: 88%
[8]
  viability, T/C: 85.2%
[9]
  viability, T/C: 62.9%
[10]
  viability, T/C: 51.2%
[11]
  viability, T/C: 44.3%
[12]
  viability, T/C: 111%
[13]
  viability, T/C: 104%
[14]
  viability, T/C: 85.5%
[15]
  viability, T/C: 65.5%
[16]
  viability, T/C: 64.5%
[17]
  viability, T/C: 51.9%
[18]
  viability, T/C: 98.2%
[19]
  viability, T/C: 103%
[20]
  viability, T/C: 82.5%
[21]
  viability, T/C: 68.9%
[22]
  viability, T/C: 64.7%
[23]
  viability, T/C: 44.5%
[24]
  viability, T/C: 101%
[25]
  viability, T/C: 90.6%
[26]
  viability, T/C: 83.8%
[27]
  viability, T/C: 75.6%
[28]
  viability, T/C: 55.5%
[29]
  viability, T/C: 41.5%
[30]
  viability, T/C: 90.8%
[31]
  viability, T/C: 98.1%
[32]
  viability, T/C: 80%
[33]
  viability, T/C: 75%
[34]
  viability, T/C: 53.7%
[35]
  viability, T/C: 43.6%

## CC(C)c1c(-c2ccccc2)nc2c(C#N)c[nH]n2c1=O + NC1CCC(NC2CC2c2ccccc2)CC1
[1]
  IC50: > 10 µM
[2]
  IC50: > 10 µM
[3]
  IC50: > 10 µM
[4]
  IC50: > 10 µM
[5]
  IC50: > 10 µM
[8]
  viability, T/C: 97.2%
[9]
  viability, T/C: 115%
[10]
  viability, T/C: 104%
[11]
  viability, T/C: 127%
Second compound 0.1 µM, first compound 3.16 µM
  viability, T/C: 99.9%
Second compound 0.1 µM, first compound 10 µM
  viability, T/C: 104%
[14]
  viability, T/C: 106%
[15]
  viability, T/C: 99.3%
[16]
  viability, T/C: 126%
[17]
  viability, T/C: 108%
Second compound 0.316 µM, first compound 3.16 µM
  viability, T/C: 108%
Second compound 0.316 µM, first compound 10 µM
  viability, T/C: 104%
[20]
  viability, T/C: 119%
[21]
  viability, T/C: 120%
[22]
  viability, T/C: 100%
[23]
  viability, T/C: 111%
Second compound 1 µM, first compound 3.16 µM
  viability, T/C: 105%
Second compound 1 µM, first compound 10 µM
  viability, T/C: 114%
[26]
  viability, T/C: 111%
[27]
  viability, T/C: 111%
[28]
  viability, T/C: 114%
[29]
  viability, T/C: 119%
Second compound 3.16 µM, first compound 3.16 µM
  viability, T/C: 98.8%
Second compound 3.16 µM, first compound 10 µM
  viability, T/C: 112%
[32]
  viability, T/C: 118%
[33]
  viability, T/C: 121%
[34]
  viability, T/C: 130%
[35]
  viability, T/C: 121%
Second compound 10 µM, first compound 3.16 µM
  viability, T/C: 120%
Second compound 10 µM, first compound 10 µM
  viability, T/C: 104%

## O=C(C=Cn1cnc(-c2cc(C(F)(F)F)cc(C(F)(F)F)c2)n1)NNc1cnccn1
Compound 0.00316 µM
  viability, T/C: 106% and 109%
Compound 0.01 µM
  viability, T/C: 108% and 91%
Compound 0.0316 µM
  viability, T/C: 121% and 117%
Compound 0.1 µM
  viability, T/C: 115% and 97.5%
Compound 0.316 µM
  viability, T/C: 94.2% and 86.3%
Compound 1 µM
  viability, T/C: 81.2% and 73.2%
Curve of compound
  IC50: > 1 µM

## Cn1ncnc1C1c2n[nH]c(=O)c3cc(F)cc(c23)NC1c1ccc(F)cc1 (configuration not stated) + NC1CC1c1ccc(-c2cccc(O)c2)cc1
[1]
  IC50: > 0.1 µM
[2]
  IC50: > 0.1 µM
[3]
  IC50: > 0.1 µM
[4]
  IC50: > 0.1 µM
[5]
  IC50: > 0.1 µM
Second compound 0.1 µM, first compound 0.000316 µM
  viability, T/C: 118%
Second compound 0.1 µM, first compound 0.001 µM
  viability, T/C: 100%
[6]
  viability, T/C: 102%
[7]
  viability, T/C: 82.8%
[8]
  viability, T/C: 92.4%
[9]
  viability, T/C: 90.4%
Second compound 0.316 µM, first compound 0.000316 µM
  viability, T/C: 106%
Second compound 0.316 µM, first compound 0.001 µM
  viability, T/C: 106%
[12]
  viability, T/C: 101%
[13]
  viability, T/C: 96.1%
[14]
  viability, T/C: 98.3%
[15]
  viability, T/C: 94.1%
Second compound 1 µM, first compound 0.000316 µM
  viability, T/C: 93.1%
Second compound 1 µM, first compound 0.001 µM
  viability, T/C: 103%
[18]
  viability, T/C: 100%
[19]
  viability, T/C: 93%
[20]
  viability, T/C: 84.6%
[21]
  viability, T/C: 97%
Second compound 3.16 µM, first compound 0.000316 µM
  viability, T/C: 97.9%
Second compound 3.16 µM, first compound 0.001 µM
  viability, T/C: 104%
[24]
  viability, T/C: 97.8%
[25]
  viability, T/C: 99.1%
[26]
  viability, T/C: 87.8%
[27]
  viability, T/C: 96.9%
Second compound 10 µM, first compound 0.000316 µM
  viability, T/C: 93.8%
Second compound 10 µM, first compound 0.001 µM
  viability, T/C: 111%
[30]
  viability, T/C: 97.1%
[31]
  viability, T/C: 105%
[32]
  viability, T/C: 100%
[33]
  viability, T/C: 90.8%

## CCc1c2c(nc3ccc(O)cc13)-c1cc3c(c(=O)n1C2)COC(=O)[C@]3(O)CC + NC1CCC(NC2CC2c2ccccc2)CC1
[1]
  IC50: 0.0659 µM
[2]
  IC50: 0.0286 µM
[3]
  IC50: 0.0478 µM
[4]
  IC50: 0.0221 µM
[5]
  IC50: 0.215 µM
Second compound 0.1 µM, first compound 0.000949 µM
  viability, T/C: 86.3%
Second compound 0.1 µM, first compound 0.003 µM
  viability, T/C: 68.7%
Second compound 0.1 µM, first compound 0.00949 µM
  viability, T/C: 62.7%
Second compound 0.1 µM, first compound 0.03 µM
  viability, T/C: 43.7%
Second compound 0.1 µM, first compound 0.0949 µM
  viability, T/C: 54.4%
Second compound 0.1 µM, first compound 0.3 µM
  viability, T/C: 47.8%
Second compound 0.316 µM, first compound 0.000949 µM
  viability, T/C: 96.8%
Second compound 0.316 µM, first compound 0.003 µM
  viability, T/C: 72.7%
Second compound 0.316 µM, first compound 0.00949 µM
  viability, T/C: 54.2%
Second compound 0.316 µM, first compound 0.03 µM
  viability, T/C: 46.7%
Second compound 0.316 µM, first compound 0.0949 µM
  viability, T/C: 49.9%
Second compound 0.316 µM, first compound 0.3 µM
  viability, T/C: 51.4%
Second compound 1 µM, first compound 0.000949 µM
  viability, T/C: 94.5%
Second compound 1 µM, first compound 0.003 µM
  viability, T/C: 70.6%
Second compound 1 µM, first compound 0.00949 µM
  viability, T/C: 70%
Second compound 1 µM, first compound 0.03 µM
  viability, T/C: 50.4%
Second compound 1 µM, first compound 0.0949 µM
  viability, T/C: 42.1%
Second compound 1 µM, first compound 0.3 µM
  viability, T/C: 44%
Second compound 3.16 µM, first compound 0.000949 µM
  viability, T/C: 95.2%
Second compound 3.16 µM, first compound 0.003 µM
  viability, T/C: 92.8%
Second compound 3.16 µM, first compound 0.00949 µM
  viability, T/C: 62.1%
Second compound 3.16 µM, first compound 0.03 µM
  viability, T/C: 48.2%
Second compound 3.16 µM, first compound 0.0949 µM
  viability, T/C: 41.3%
Second compound 3.16 µM, first compound 0.3 µM
  viability, T/C: 44%
Second compound 10 µM, first compound 0.000949 µM
  viability, T/C: 89.8%
Second compound 10 µM, first compound 0.003 µM
  viability, T/C: 79.1%
Second compound 10 µM, first compound 0.00949 µM
  viability, T/C: 64.5%
Second compound 10 µM, first compound 0.03 µM
  viability, T/C: 69.4%
Second compound 10 µM, first compound 0.0949 µM
  viability, T/C: 51.3%
Second compound 10 µM, first compound 0.3 µM
  viability, T/C: 48.5%
